According to patent US9522914B2, “Azole derivative” (TAISHO PHARMACEUTICAL CO., LTD, priority 2011, dated 2016):

Target: Human V1b receptor (Homo sapiens (Human), UniProt P47901)
Experiment: Binding Test for V1b Receptor ([3H]AVP, crude membrane preparation of 293FT cells)
Settings: inhibition of [3H]AVP binding (0.4 to 1 nmol/L), room temperature, 60 minutes
Protocol: Binding Test for V1b Receptor
Human V1b receptor was transiently expressed in 293FT cells (Invitrogen). The cells were collected and then homogenated in a 15 mmol/L tris-hydrochloric acid buffer (pH 7.4 and containing 2 mmol/L magnesium chloride, 0.3 mmol/L ethylenediaminetetracetic acid, and 1 mmol/L glycol ether diaminetetraacetic acid). The resulting homogenate was centrifuged at 50,000×g at 4° C. for 20 minutes. The precipitate was resuspended in a 75 mmol/L tris-hydrochloric acid buffer (pH 7.4 and containing 12.5 mmol/L magnesium chloride, 0.3 mmol/L ethylenediaminetetracetic acid, 1 mmol/L glycol ether diaminetetraacetic acid, and 250 mmol/L sucrose) to give a crude membrane preparation, which was stored at −80° C. until the binding test was initiated. In the binding test, the crude membrane preparation was diluted with a 50 mmol/L tris-hydrochloric acid buffer (pH 7.4 and containing 10 mmol/L magnesium chloride and 0.1% bovine serum albumin) and mixed with each test compound and [^3H]AVP (final concentration: 0.4 to 1 nmol/L), followed by incubation at room temperature for 60 minutes. The test compound was serially diluted with DMSO so that it would have final concentrations of 0.01 nmol/L to 1 μmol/L at the time of mixing. After the incubation, the mixture was suction filtered through a GF/C filter that was preliminarily impregnated with 0.3% polyethyleneimine. The GF/C filter was dried and after adding a scintillator, the residual radioactivity on the filter was measured using TopCount (PerkinElmer Inc.). The radioactivity in the presence of unlabeled AVP at […] was defined as 0%, and the radioactivity in the absence of unlabeled AVP was defined as 100%. A dose-response curve was plotted from radio activities in the presence of a test compound at various concentrations, and the 50% inhibitory concentration (IC50 value) of the test compound was calculated.

Chain of Human V1b receptor (P47901 whole entry): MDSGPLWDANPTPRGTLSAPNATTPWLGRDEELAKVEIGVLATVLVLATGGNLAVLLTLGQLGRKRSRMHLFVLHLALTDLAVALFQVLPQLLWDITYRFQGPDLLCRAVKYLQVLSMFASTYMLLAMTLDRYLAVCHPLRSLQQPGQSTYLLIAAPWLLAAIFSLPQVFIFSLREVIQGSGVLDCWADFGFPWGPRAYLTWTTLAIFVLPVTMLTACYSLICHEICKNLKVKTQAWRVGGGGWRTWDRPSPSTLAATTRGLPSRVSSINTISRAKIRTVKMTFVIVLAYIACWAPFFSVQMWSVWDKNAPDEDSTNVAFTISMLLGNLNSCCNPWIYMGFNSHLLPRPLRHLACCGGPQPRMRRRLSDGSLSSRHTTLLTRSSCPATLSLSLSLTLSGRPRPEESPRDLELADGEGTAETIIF

Row | Structure (SMILES) | IC50 [nM]
1 | CC(C)NC(=O)Cc1cc(-c2ccc(CCN3CCOCC3)cc2)nn1-c1cccc(Cl)c1 [Example C-05, 2-[1-(3-chlorophenyl)-3-{4-[2-(morpholin-4-yl)ethyl]phenyl}-1H-pyrazol-5-yl]-N-(propan-2-yl)acetamide] | 21
2 | COc1cc(CCN2C3CCC2COC3)ccc1-n1nc(CC(=O)NC(C)C)n(-c2cccc(Cl)c2)c1=O [Example D-25, 2-[4-(3-chlorophenyl)-1-{2-methoxy-4-[2-(3-oxa-8-azabicyclo[3.2.1]oct-8-yl)ethyl]phenyl}-5-oxo-4,5-dihydro-1H-1,2,4-triazol-3-yl]-N-(propan-2-yl)acetamide] | 100 to 1000
3 | COc1cccc(-c2nc(-c3ccc(CCN4CCCC(OC)C4)cc3)nn2CC(=O)NC(C)C)c1 (stereo not drawn) [Example B-25, 2-[5-(3-methoxyphenyl)-3-{4-[2-(3-methoxypiperidin-1-yl)ethyl]phenyl}-1H-1,2,4-triazol-1-yl]-N-(propan-2-yl)acetamide] | 10 to 100
4 | COc1cc(-c2nc(-c3ccc(CCN4CCC(OC)C4)cc3)cn2CC(=O)NC(C)C)ccc1F (stereo not drawn) [Example A-17, 2-[2-(4-fluoro-3-methoxyphenyl)-4-{4-[2-(3-methoxypyrrolidin-1-yl)ethyl]phenyl}-1H-imidazol-1-yl]-N-(propan-2-yl)acetamide] | 10 to 100
5 | COc1cc(-c2nc(-c3ccc(CCN4CCC[C@H]4C)cc3)cn2CC(=O)NC(C)C)ccc1F [Example A-12, 2-[2-(4-fluoro-3-methoxyphenyl)-4-(4-{2-[(2R)-2-methylpyrrolidin-1-yl]ethyl}phenyl)-1H-imidazol-1-yl]-N-(propan-2-yl)acetamide] | 17
6 | COc1cncc(-c2nc(-c3ccc(CCN4CCOCC4)cc3)cn2CC(=O)NC(C)C)c1 [Example A-40, 2-[2-(5-methoxypyridin-3-yl)-4-{4-[2-(morpholin-4-yl)ethyl]phenyl}-1H-imidazol-1-yl]-N-(propan-2-yl)acetamide] | 10 to 100
7 | CC(C)(C)NC(=O)Cn1nc(-c2ccc(CCN3C4CCC3COC4)cn2)nc1-c1cccc(Cl)c1 [Example B-09, N-tert-butyl-2-[5-(3-chlorophenyl)-3-{5-[2-(3-oxa-8-azabicyclo[3.2.1]oct-8-yl)ethyl]pyridin-2-yl}-1H-1,2,4-triazol-1-yl]acetamide] | 2.2
8 | CC(C)NC(=O)Cc1nn(-c2ccc(CCN3CCOCC3)cc2)c(=O)n1-c1ccc(F)c(Cl)c1 [Example D-26, 2-[4-(3-chloro-4-fluorophenyl)-1-{4-[2-(morpholin-4-yl)ethyl]phenyl}-5-oxo-4,5-dihydro-1H-1,2,4-triazol-3-yl]-N-(propan-2-yl)acetamide] | 4.4
9 | COc1cccc(-c2nc(-c3ccc(CCN4CCOCC4)cc3)nn2CC(=O)NC(C)C)c1 [Example B-16, 2-[5-(3-methoxyphenyl)-3-{4-[2-(morpholin-4-yl)ethyl]phenyl}-1H-1,2,4-triazol-1-yl]-N-(propan-2-yl)acetamide] | 5.3
10 | COc1cc(-c2nc(-c3ccc(CCN4C(C)COCC4C)cc3)cn2CC(=O)NC(C)C)ccc1F (stereo not drawn) [Example A-25, 2-[4-{4-[2-(3,5-dimethylmorpholin-4-yl)ethyl]phenyl}-2-(4-fluoro-3-methoxyphenyl)-1H-imidazol-1-yl]-N-(propan-2-yl)acetamide] | 14
11 | CC(C)NC(=O)Cc1nn(-c2ccc(CCN3CC4(COC4)C3)cc2)c(=O)n1-c1cccc(Cl)c1 [Example D-61, 2-[4-(3-chlorophenyl)-1-{4-[2-(2-oxa-6-azaspiro[3.3]hept-6-yl)ethyl]phenyl}-5-oxo-4,5-dihydro-1H-1,2,4-triazol-3-yl]-N-(propan-2-yl)acetamide] | 10 to 100
12 | COc1cccc(-c2nc(-c3ccc(CCN4CCC(C(N)=O)CC4)cc3)nn2CC(=O)NC(C)C)c1 [Example B-34, 1-[2-(4-{5-(3-methoxyphenyl)-1-[2-oxo-2-(propan-2-ylamino)ethyl]-1H-1,2,4-triazol-3-yl}phenyl)ethyl]piperidine-4-carboxamide] | 100 to 1000
13 | CC(C)NC(=O)Cn1nc(-c2ccc(CCN3CCOCC3)cc2)cc1-c1cccc(Cl)c1 [Example C-07, 2-[5-(3-chlorophenyl)-3-{4-[2-(morpholin-4-yl)ethyl]phenyl}-1H-pyrazol-1-yl]-N-(propan-2-yl)acetamide] | 7.1
14 | CC(C)NC(=O)Cn1nc(-c2ccc(CN3CCN(C)CC3)cc2)nc1-c1cccc(Cl)c1 [Example B-03, 2-[5-(3-chlorophenyl)-3-{4-[(4-methylpiperazin-1-yl)methyl]phenyl}-1H-1,2,4-triazol-1-yl]-N-(propan-2-yl)acetamide] | 100 to 1000
15 | COc1cccc(-c2nc(-c3ccc(CCN4CCOCC4)cc3F)nn2CC(=O)NC(C)C)c1 [Example B-18, 2-[3-{2-fluoro-4-[2-(morpholin-4-yl)ethyl]phenyl}-5-(3-methoxyphenyl)-1H-1,2,4-triazol-1-yl]-N-(propan-2-yl)acetamide] | 7.2
16 | COc1cc(-c2nc(-c3ccc(CCN4CCC(C#N)CC4)cc3)cn2CC(=O)NC(C)C)ccc1F [Example A-14, 2-[4-{4-[2-(4-cyanopiperidin-1-yl)ethyl]phenyl}-2-(4-fluoro-3-methoxyphenyl)-1H-imidazol-1-yl]-N-(propan-2-yl)acetamide] | 100 to 1000
17 | COc1cccc(-n2c(CC(=O)NC(C)C)nn(-c3ccc(CCN4C5CCC4COC5)c(OC)c3)c2=O)c1 [Example D-42, 2-[1-{3-methoxy-4-[2-(3-oxa-8-azabicyclo[3.2.1]oct-8-yl)ethyl]phenyl}-4-(3-methoxyphenyl)-5-oxo-4,5-dihydro-1H-1,2,4-triazol-3-yl]-N-(propan-2-yl)acetamide] | 7.9
18 | COc1cc(-c2nc(-c3ccc(CCN4CCCCC4)cc3)cn2CC(=O)NC(C)C)ccc1F [Example A-09, 2-[2-(4-fluoro-3-methoxyphenyl)-4-{4-[2-(piperidin-1-yl)ethyl]phenyl}-1H-imidazol-1-yl]-N-(propan-2-yl)acetamide] | 16
19 | CC(C)NC(=O)CC1=C(c2cccc(Cl)c2)C(=O)N(c2ccc(CCN3CCOCC3)cc2)C1=O [Example C-18, 2-[4-(3-chlorophenyl)-1-{4-[2-(morpholin-4-yl)ethyl]phenyl}-2,5-dioxo-2,5-dihydro-1H-pyrrol-3-yl]-N-(propan-2-yl)acetamide] | 9
20 | COc1cc(-c2nc(-c3ccc(CCN4C5CCC4COC5)cn3)nn2CC(=O)NC(C)C)ccc1F [Example B-06, 2-[5-(4-fluoro-3-methoxyphenyl)-3-{5-[2-(3-oxa-8-azabicyclo[3.2.1]oct-8-yl)ethyl]pyridin-2-yl}-1H-1,2,4-triazol-1-yl]-N-(propan-2-yl)acetamide] | 3.3
21 | COc1cc(-c2nc(-c3ccc(CCN4CCOCC4)cc3)cn2CC(=O)NC(C)C)ccn1 [Example A-41, 2-[2-(2-methoxypyridin-4-yl)-4-{4-[2-(morpholin-4-yl)ethyl]phenyl}-1H-imidazol-1-yl]-N-(propan-2-yl)acetamide] | 100 to 1000
22 | CC(C)NC(=O)Cc1nn(-c2ccc(CCN3CCC4CCCCC4C3)cc2)c(=O)n1-c1cccc(Cl)c1 [Example D-51, 2-[4-(3-chlorophenyl)-1-{4-[2-(octahydroisoquinolin-2(1H)-yl)ethyl]phenyl}-5-oxo-4,5-dihydro-1H-1,2,4-triazol-3-yl]-N-(propan-2-yl)acetamide] | 100 to 1000
23 | COc1cccc(-c2nc(-c3ccc(CCN4CCCCC4)cc3)cn2CC(=O)NC(C)C)c1 [Example A-37, 2-[2-(3-methoxyphenyl)-4-{4-[2-(piperidin-1-yl)ethyl]phenyl}-1H-imidazol-1-yl]-N-(propan-2-yl)acetamide] | 10 to 100
24 | CCN(CC)CCc1ccc(-c2cn(CC(=O)NC(C)C)c(-c3ccc(F)c(OC)c3)n2)cc1 [Example A-31, 2-[4-{4-[2-(diethylamino)ethyl]phenyl}-2-(4-fluoro-3-methoxyphenyl)-1H-imidazol-1-yl]-N-(propan-2-yl)acetamide] | 10 to 100
25 | CC(C)(C)NC(=O)Cc1nn(-c2ccc(CCN3C4CCC3COC4)cn2)c(=O)n1-c1ccc(F)c(Cl)c1 [Example D-33, N-tert-butyl-2-[4-(3-chloro-4-fluorophenyl)-1-{5-[2-(3-oxa-8-azabicyclo[3.2.1]oct-8-yl)ethyl]pyridin-2-yl}-5-oxo-4,5-dihydro-1H-1,2,4-triazol-3-yl]acetamide] | 9.1
26 | COc1cccc(-n2c(CC(=O)NC(C)C)nn(-c3ccc(CCN4C5CCC4COC5)cc3)c2=O)c1 [Example D-39, 2-[4-(3-methoxyphenyl)-1-{4-[2-(3-oxa-8-azabicyclo[3.2.1]oct-8-yl)ethyl]phenyl}-5-oxo-4,5-dihydro-1H-1,2,4-triazol-3-yl]-N-(propan-2-yl)acetamide] | 10 to 100
27 | CC(C)NC(=O)Cc1nn(-c2ccc(CCN3CCOCC3)cc2)c(=O)n1-c1cccc(C(F)(F)F)c1 [Example D-35, 2-(1-{4-[2-(morpholin-4-yl)ethyl]phenyl}-5-oxo-4-[3-(trifluoromethyl)phenyl]-4,5-dihydro-1H-1,2,4-triazol-3-yl)-N-(propan-2-yl)acetamide] | 18
